In US11197479B2, “Use of silthiofam for the treatment of soybean rust” (priority 2018, dated 2021):
“And” between values parts separate entries of the source, which are not always exact repeats. Equal values may be shown once.

Legend:
Phakopsora pachyrhizi [1] = assay: Glasshouse pot trial: efficacy on soybean rust on soybean (Glycine max), visual estimation of degree of infection on leaves; assay type: in vivo
Method: (§1) In the tables presented below, the following terms have the following meaning:
Glasshouse pot trials were conducted to evaluate the effect and efficacy of silthiofam on soybean rust disease on soybean (Glycine max).
The trial was divided in 11 treatments. In 4 of the treatments, silthiofam was applied in different amounts.
(§2) Silthiofam compositions used in this trial were prepared from the suspension concentrate containing 125 g/L of silthiofam, diluted with water to predetermined concentration and sprayed on the plants in the predetermined amounts.
In two of the treatments, silthiofam was applied in combination with additional ingredients.
First combination was of silthiofam and chitosan, wherein silthiofam was applied in an amount of 250 g/ha on the plant first and chitosan was applied subsequently in an amount of 200 g/ha.
Second combination was a combination of silthiofam and tagatose, wherein silthiofam was applied in an amount of 250 g/ha simultaneously with tagatose in an amount of 200 g/ha.
Further 6 treatments were current market available treatments of soybean rust applied in the label prescribed dose, wherein the compositions used were prepared from commercially available products prepared according to the respective label instructions and sprayed on the plants.
One treatment of the trial consisted of fungi inoculated plants which received no treatment.
Soybean plants were treated two times with silthiofam and other treatments. First treatment was applied when soybean plants reached stage BBCH16 and the second treatment was applied when soybean plants reached stage BBCH61. Growth stages were defined according to Compendium of Growth Stage Identification Keys for Mono- and Dicotyledonous Plants, Extended BBCH scale, 2nd Edition 1997, ISBN 3-9520749-3-4.
After silthiofam and other treatments were applied first time, plants were inoculated with Phakopsora pachyrhizi spores and evaluation of leaves condition and disease spread was done every 7 days.
(§3) Method used for evaluation of disease spread was visual estimation of degree of infection on leaves.
The experimental design of the pot trial was randomized design with 4 pot replications per treatment applied, wherein six soybean plants were planted per pot.
Treatments were the following:
Treatment 1: Plant inoculated with P. pachyrhizi, no treatment applied
Treatment 2: Treatment with flutriafol and azoxystrobin mixture, applied in concentration of 31.25 g flutriafol/ha and 37.5 g azoxystrobin/ha
Treatment 3: Silthiofam treatment applied in 250 g silthiofam/ha
Treatment 4: Silthiofam treatment applied in 500 g silthiofam/ha
Treatment 5: Silthiofam treatment applied in 250 g silthiofam/ha and 200 g/ha of tagatose
Treatment 6: Silthiofam treatment applied in 250 g silthiofam/ha and 200 g/ha of chitosan
Treatment 7: Mancozeb applied in 1.68 kg mancozeb/ha
Treatment 8: Chlorothalonil applied in 626.4 g chlorothalonil/ha
Treatment 9: Azoxystrobin applied in 37.5 g azoxystrobin/ha
Treatment 10: Boscalid applied in 294 g boscalid/ha
Treatment 11: Prothioconazole and tebuconazole mixture applied as 42 g prothioconazole/ha and 84 g tebuconazole/ha

soybean rust disease = assay: Field trial: efficacy on naturally infected soybean, visual estimation of degree of infection on leaves; assay type: in vivo, Glycine max
Method: as §1
Field trial was conducted to evaluate the effect and efficacy of silthiofam on soybean rust disease on soybean (Glycine max) wherein plants were naturally infected by the disease.
The trial was divided in the following […]:
one treatment where plants were left untreated and in which natural progression of the disease can be observed;
two treatments with silthiofam alone in different dosage amounts;
and four treatments where silthiofam was applied with other compounds, namely tagatose and chitosan in different dosage ratios.
Each treatment was applied on a plot of 6 ft*30 ft in size and was repeated in 4 replicates.
as §2
For each treatment, two applications of respective treatment were made with 19 days interval between. First application was made when soybean plant reached stage BBCH 64, and the second one when plant reached stage BBCH 73. Growth stages were defined according to Compendium of Growth Stage Identification Keys for Mono- and Dicotyledonous Plants, Extended BBCH scale, 2nd Edition 1997, ISBN 3-9520749-3-4.
as §3

Phakopsora pachyrhizi [2] = assay: Glasshouse pot trial: efficacy on soybean rust on soybean (Glycine max), visual estimation of degree of infection on leaves; assay type: in vivo; conditions: general statement; Phakopsora pachyrhizi and P. meibomiae

## C=CCNC(=O)c1c([Si](C)(C)C)sc(C)c1C [Silthiofam, N-allyl-4,5-dimethyl-2-(trimethylsilyl)thiophene-3-carboxamide]
Phakopsora pachyrhizi [1]; silthiofam 250 g/ha, 7/7 d after first/last application, 19 d after planting, LEALOW
  % efficacy: 71.5% and 90.9% and 93.6% and 88.9%
Phakopsora pachyrhizi [1]; silthiofam 250 g/ha, 7/7 d after first/last application, 19 d after planting, LEAMID
  % efficacy: 93.4% and 100.0% and 81.9% and 85.0%
Phakopsora pachyrhizi [1]; silthiofam 250 g/ha, 7/7 d after first/last application, 19 d after planting, LEAUPP
  % efficacy: 100.0%
Phakopsora pachyrhizi [1]; silthiofam 250 g/ha, 14/14 d after first/last application, 26 d after planting, LEALOW
  % efficacy: 89.0% and 82.0% and 84.7% and 84.1%
Phakopsora pachyrhizi [1]; silthiofam 250 g/ha, 14/14 d after first/last application, 26 d after planting, LEAMID
  % efficacy: 95.0% and 91.2% and 92.0% and 89.4%
Phakopsora pachyrhizi [1]; silthiofam 250 g/ha, 14/14 d after first/last application, 26 d after planting, LEAUPP
  % efficacy: 100.0%
Phakopsora pachyrhizi [1]; silthiofam 250 g/ha, 21/21 d after first/last application, 33 d after planting, LEALOW
  % efficacy: 78.0% and 76.0% and 82.0% and 80.0%
Phakopsora pachyrhizi [1]; silthiofam 250 g/ha, 21/21 d after first/last application, 33 d after planting, LEAMID
  % efficacy: 92.0% and 89.0% and 90.0% and 88.0%
Phakopsora pachyrhizi [1]; silthiofam 250 g/ha, 21/21 d after first/last application, 33 d after planting, LEAUPP
  % efficacy: 100.0%
Phakopsora pachyrhizi [1]; silthiofam 250 g/ha, 28/7 d after first/last application, 40 d after planting, LEALOW
  % efficacy: 82.0% and 80.0% and 84.0%
Phakopsora pachyrhizi [1]; silthiofam 250 g/ha, 28/7 d after first/last application, 40 d after planting, LEAMID
  % efficacy: 92.0% and 88.0% and 90.0%
Phakopsora pachyrhizi [1]; silthiofam 250 g/ha, 28/7 d after first/last application, 40 d after planting, LEAUPP
  % efficacy: 100.0%
Phakopsora pachyrhizi [1]; silthiofam 250 g/ha, 35/14 d after first/last application, 47 d after planting, LEAMID
  % efficacy: 78.0% and 82.0% and 80.0% and 84.0%
Phakopsora pachyrhizi [1]; silthiofam 250 g/ha, 35/14 d after first/last application, 47 d after planting, LEAUPP
  % efficacy: 94.5% and 98.0% and 95.5% and 92.9%
Phakopsora pachyrhizi [1]; silthiofam 250 g/ha, 42/21 d after first/last application, 54 d after planting, LEAMID
  % efficacy: 48.0% and 54.0% and 59.0% and 52.0%
Phakopsora pachyrhizi [1]; silthiofam 250 g/ha, 42/21 d after first/last application, 54 d after planting, LEAUPP
  % efficacy: 86.0% and 85.0% and 89.0%
Phakopsora pachyrhizi [1]; silthiofam 500 g/ha, 7/7 d after first/last application, 19 d after planting, LEALOW
  % efficacy: 85.8% and 95.5% and 93.6% and 97.3%
Phakopsora pachyrhizi [1]; silthiofam 500 g/ha, 7/7 d after first/last application, 19 d after planting, LEAMID
  % efficacy: 93.4% and 94.5% and 100.0%
Phakopsora pachyrhizi [1]; silthiofam 500 g/ha, 7/7 d after first/last application, 19 d after planting, LEAUPP
  % efficacy: 100.0%
Phakopsora pachyrhizi [1]; silthiofam 500 g/ha, 14/14 d after first/last application, 26 d after planting, LEALOW
  % efficacy: 92.0% and 90.0% and 94.7% and 91.9%
Phakopsora pachyrhizi [1]; silthiofam 500 g/ha, 14/14 d after first/last application, 26 d after planting, LEAMID
  % efficacy: 99.0% and 96.8% and 97.9%
Phakopsora pachyrhizi [1]; silthiofam 500 g/ha, 14/14 d after first/last application, 26 d after planting, LEAUPP
  % efficacy: 100.0%
Phakopsora pachyrhizi [1]; silthiofam 500 g/ha, 21/21 d after first/last application, 33 d after planting, LEALOW
  % efficacy: 89.0% and 86.0% and 92.0%
Phakopsora pachyrhizi [1]; silthiofam 500 g/ha, 21/21 d after first/last application, 33 d after planting, LEAMID
  % efficacy: 96.0% and 95.0% and 97.0%
Phakopsora pachyrhizi [1]; silthiofam 500 g/ha, 21/21 d after first/last application, 33 d after planting, LEAUPP
  % efficacy: 100.0%
Phakopsora pachyrhizi [1]; silthiofam 500 g/ha, 28/7 d after first/last application, 40 d after planting, LEALOW
  % efficacy: 88.0% and 90.0% and 85.0%
Phakopsora pachyrhizi [1]; silthiofam 500 g/ha, 28/7 d after first/last application, 40 d after planting, LEAMID
  % efficacy: 95.0% and 93.0% and 92.0%
Phakopsora pachyrhizi [1]; silthiofam 500 g/ha, 28/7 d after first/last application, 40 d after planting, LEAUPP
  % efficacy: 100.0%
Phakopsora pachyrhizi [1]; silthiofam 500 g/ha, 35/14 d after first/last application, 47 d after planting, LEAMID
  % efficacy: 92.0% and 89.0% and 90.0% and 86.0%
Phakopsora pachyrhizi [1]; silthiofam 500 g/ha, 35/14 d after first/last application, 47 d after planting, LEAUPP
  % efficacy: 98.9% and 100.0% and 90.9%
Phakopsora pachyrhizi [1]; silthiofam 500 g/ha, 42/21 d after first/last application, 54 d after planting, LEAMID
  % efficacy: 79.0% and 72.0% and 80.0% and 82.0%
Phakopsora pachyrhizi [1]; silthiofam 500 g/ha, 42/21 d after first/last application, 54 d after planting, LEAUPP
  % efficacy: 92.0% and 90.0% and 95.0% and 93.0%
Soybean rust disease; silthiofam 125 g/ha, 14/14 d after first/last application, LEALOW
  % efficacy: 88.9% and 84.3% and 63.4% and 77.3%
Soybean rust disease; silthiofam 125 g/ha, 14/14 d after first/last application, LEAMID
  % efficacy: 95.5% and 92.9% and 95.0% and 90.9%
Soybean rust disease; silthiofam 125 g/ha, 14/14 d after first/last application, LEAUPP
  % efficacy: 0.0%
Soybean rust disease; silthiofam 125 g/ha, 20/1 d after first/last application, LEALOW
  % efficacy: 68.2% and 56.0% and 64.1% and 69.1%
Soybean rust disease; silthiofam 125 g/ha, 20/1 d after first/last application, LEAMID
  % efficacy: 83.3% and 78.2% and 80.4%
Soybean rust disease; silthiofam 125 g/ha, 20/1 d after first/last application, LEAUPP
  % efficacy: 90.9% and 88.9% and 100.0% and 94.4%
Soybean rust disease; silthiofam 125 g/ha, 27/8 d after first/last application, LEALOW
  % efficacy: 35.00% and 42.00% and 36.00%
Soybean rust disease; silthiofam 125 g/ha, 27/8 d after first/last application, LEAMID
  % efficacy: 77.9% and 75.0% and 78.6% and 80.3%
Soybean rust disease; silthiofam 125 g/ha, 27/8 d after first/last application, LEAUPP
  % efficacy: 89.3% and 85.7% and 93.3% and 95.2%
Soybean rust disease; silthiofam 125 g/ha, 34/15 d after first/last application, LEALOW
  % efficacy: 45.0% and 35.0% and 52.0% and 55.0%
Soybean rust disease; silthiofam 125 g/ha, 34/15 d after first/last application, LEAMID
  % efficacy: 72.0% and 67.0% and 72.7%
Soybean rust disease; silthiofam 125 g/ha, 34/15 d after first/last application, LEAUPP
  % efficacy: 90.9% and 86.2% and 92.2%
Soybean rust disease; silthiofam 250 g/ha, 14/14 d after first/last application, LEALOW
  % efficacy: 66.7% and 56.9% and 73.2% and 59.1%
Soybean rust disease; silthiofam 250 g/ha, 14/14 d after first/last application, LEAMID
  % efficacy: 81.8% and 78.6% and 70.0% and 63.6%
Soybean rust disease; silthiofam 250 g/ha, 14/14 d after first/last application, LEAUPP
  % efficacy: 0.0%
Soybean rust disease; silthiofam 250 g/ha, 20/1 d after first/last application, LEALOW
  % efficacy: 60.2% and 45.3% and 57.7% and 65.4%
Soybean rust disease; silthiofam 250 g/ha, 20/1 d after first/last application, LEAMID
  % efficacy: 68.8% and 67.3% and 78.4%
Soybean rust disease; silthiofam 250 g/ha, 20/1 d after first/last application, LEAUPP
  % efficacy: 81.8% and 83.3% and 90.0% and 100.0%
Soybean rust disease; silthiofam 250 g/ha, 27/8 d after first/last application, LEALOW
  % efficacy: 55.00% and 65.00% and 58.00% and 48.00%
Soybean rust disease; silthiofam 250 g/ha, 27/8 d after first/last application, LEAMID
  % efficacy: 61.8% and 61.1% and 68.6% and 62.1%
Soybean rust disease; silthiofam 250 g/ha, 27/8 d after first/last application, LEAUPP
  % efficacy: 82.1% and 77.1% and 83.3% and 88.1%
Soybean rust disease; silthiofam 250 g/ha, 34/15 d after first/last application, LEALOW
  % efficacy: 25.0% and 22.0% and 30.0% and 35.0%
Soybean rust disease; silthiofam 250 g/ha, 34/15 d after first/last application, LEAMID
  % efficacy: 62.0% and 58.0% and 56.8%
Soybean rust disease; silthiofam 250 g/ha, 34/15 d after first/last application, LEAUPP
  % efficacy: 67.3% and 62.1% and 54.5% and 57.8%
Phakopsora pachyrhizi [2]
  activity against soybean rust causing fungi: high activity
